Entries after “also recorded” stand apart in the source; their conditions may differ.
What was measured:
[1] = test system: collagen-induced arthritis (CIA) model; experiment: Collagen-induced arthritis (CIA) model; format: in vivo; conditions: mouse CIA, daily oral 30 mg/kg
Description: Immunization with Collagen Type II (CII) in an adjuvant induces polyarthritis in rodents. This model known as the collagen-induced arthritis (CIA) model, is widely used for studying arthritis and resemble many aspect of the human disease. High level of anti-collagen II correlates with disease severity. In FIG. 1 CIA was induced by immunization with type II collagen in complete Freund's adjuvant on Day 0. A second boost was given on Day 21. Treatment with vehicle or therapeutic agents was initiated on Day 18 and continued to day 35. At the end of the study on Day 36, serum was collected. […] Significance of clinical arthritis score (A) was determined from the area under the curve (AUC) of mean paw scores calculated for individual mice. (C) Serum levels of anti-type II collagen IgG. Statistical significance was determined between vehicle control and treated groups with one-way Kruskal-Wallis ANOVA and Dunn's multiple comparisons test.

[2] = test system: Experimental autoimmune encephalomyelitis (EAE); experiment: Experimental autoimmune encephalomyelitis (EAE) model; format: in vivo, C57BL/6 mice
Description: EAE was induced in C57BL/6 mice by immunization with an emulsion of MOG1-125 in complete Freund's adjuvant (CFA), followed by administration of pertussis toxin in PBS, first on the day of immunization (Day 0) and then again the following day (Day 1).
Dosing of all mice started on Day −1 and continued through Day 22. Fingolimod (FTY720, Gilenya) is the a commonly used positive control in this model.
Statistical significance was determined between vehicle control and treated groups based on the end clinical scores using Wilcoxon's non-parametric test.
Statistical analysis: Demyelination (anti-MBP) with Wilcoxon's non-parametric test; inflammatory foci or apoptosis with two-tailed Student's t-test.

MRL/lpr model = experiment: MRL/lpr lupus model; format: in vivo, MRL/lpr mice
Description: Dexamethasone was used as positive control.
Statistical significance was determined between vehicle control and treated groups by ANOVA with Dunnett's post-hoc analysis.
Glomeruli size is a quantitative measure that correlates well with the histopathological grade and severity of nephritis in this model. Statistical significance was determined between vehicle control and treated groups by ANOVA with Dunnett's post-hoc analysis (glomerulus diameter) or with a Kruskal-Wallis test with Dunn's post-hoc analysis (summed scores). * p<0.05, ** p<0.01, *** p<0.001**** p<0.0001.

B cells compartment = experiment: Dosing effect on B cells compartment (B cells, plasma cells); format: in vivo, C57BL/6 mice; conditions: 30 mg/kg in water bottle
Description: (§1) A separate group of mice received vehicle formulation as control. Blood spleens and femurs for each treated mice were harvested at the end of the study. Peritoneal lavage was also performed with PBS to harvest peritoneal resident lymphocyte.
It is plausible that Compound 1 affects one or multiple proteins that are involved either in generation or the survival of plasma cells and that this effect is independent from its ability to degrade the BTK protein. Left, representative dot plots showing the gating strategy to identify plasma cells in bone marrow. Right histograms showing cumulative data from multiple treated animals.
An ordinary one-way ANOVA with Tukey's multiple comparisons test was performed, and all groups were compared to each other. * p<0.05, ** p<0.01,**** p<0.001. All comparisons without an asterisk were not significant.

[3] = test system: well-established arthritis; experiment: Mouse model of well-established arthritis, clinical arthritis score; format: in vivo, male DBA/1 mice
plasma cells = experiment: Plasma cell counts in spleen and bone marrow, established arthritis model; format: in vivo, male DBA/1 mice
Description: (B) Spleens harvested at the end of the study were dissociated, and red blood cells were lysed with ammonium-chloride-potassium (ACK) lysis buffer. 1.5 million cells per spleen were stained for flow cytometry, and live single lymphocytes were gated for plasma cells (CD138+ IgD−). Plasma cells numbers were normalized to total B cells in spleen (CD19+B220+).
(C) Bone marrow was isolated from femurs harvested at the end of the study, and samples were processed and analyzed as in (B).
In (B) and (C), ordinary one-way ANOVAs with Dunnett's multiple comparisons tests were performed.

[4] = Exposure in cerebrospinal fluid after a single oral dose; format: in vivo, Male C57BL/6 mice; conditions: mouse, single oral dose 300 mg/kg
Description: Male C57BL/6 mice were administered Compound 1 orally at 300 mg/kg and 4, 8, or 24 hours after dosing CSF and plasma was collected from three mice per time point. The concentration of Compound 1 in CSF and plasma was determined by LC/MS/MS; free plasma concentration was calculated by multiplying total plasma concentration by the previously determined percentage of Compound 1 unbound to plasma protein.

BTK [5] = molecular target: T1, BTK (Mus musculus, UniProt P35991); experiment: BTK level in spleen B cells after NP-KLH immunization; format: in vivo, Mice; set-up: from tissue; host or cells: mouse spleen B cells (CD19+ TCRbeta-)
Description: Mice were immunized by intraperitoneal injection of 200 μL of immunogen containing 100 μg NP-32-KLH (Biosearch Technologies, Cat. N-5060-25,Lot. 156285-01) and 1% Alum (Alhydrogel, 2%, Invivogen Cat. Vac-alu-250, Batch 0001715532, Exp. July 2022), prepared in phosphate buffered saline. Group 1 mice were not immunized and used as control. Mice in Group 2 to 5 were dosed orally once a day from Day 1 to Day 7 with compounds or vehicle for six additional days and then sacrificed the following day. Splenocytes and bone marrow were harvested 24 hours following the final dosing of compound on Day 7. Spleens harvested at the end of the study were dissociated, and red blood cells were lysed with ammonium-chloride-potassium (ACK) lysis buffer. 1 million cells per tissue were stained for each flow cytometry panel.
Cells were permeabilized and stained for lineage markers and intracellular BTK. B cells were gated on CD19+ TCRbeta−, and T cells were gated on CD19− and TCRbeta+.

BTK [6] = molecular target: T1, BTK; experiment: BTK level in B cells of dosed mice; format: in vivo, C57BL/6 mice; set-up: Single cell suspensions from each tissue were permeabilized and stained for lineage markers and intracellular BTK; from tissue; conditions: 30 mg/kg in water bottle; blood, spleens, peritoneum and bone marrow
Description: as §1
To evaluate level of BTK in B cells, Single cell suspensions from each tissue were permeabilized and stained for lineage markers and intracellular BTK. B cells were gated on B220+ TCRbeta−, and T cells were gated on B220− and TCRbeta+.

[7] = H&E-stained kidney tissue, end of study

T1 sequence (P35991 whole entry): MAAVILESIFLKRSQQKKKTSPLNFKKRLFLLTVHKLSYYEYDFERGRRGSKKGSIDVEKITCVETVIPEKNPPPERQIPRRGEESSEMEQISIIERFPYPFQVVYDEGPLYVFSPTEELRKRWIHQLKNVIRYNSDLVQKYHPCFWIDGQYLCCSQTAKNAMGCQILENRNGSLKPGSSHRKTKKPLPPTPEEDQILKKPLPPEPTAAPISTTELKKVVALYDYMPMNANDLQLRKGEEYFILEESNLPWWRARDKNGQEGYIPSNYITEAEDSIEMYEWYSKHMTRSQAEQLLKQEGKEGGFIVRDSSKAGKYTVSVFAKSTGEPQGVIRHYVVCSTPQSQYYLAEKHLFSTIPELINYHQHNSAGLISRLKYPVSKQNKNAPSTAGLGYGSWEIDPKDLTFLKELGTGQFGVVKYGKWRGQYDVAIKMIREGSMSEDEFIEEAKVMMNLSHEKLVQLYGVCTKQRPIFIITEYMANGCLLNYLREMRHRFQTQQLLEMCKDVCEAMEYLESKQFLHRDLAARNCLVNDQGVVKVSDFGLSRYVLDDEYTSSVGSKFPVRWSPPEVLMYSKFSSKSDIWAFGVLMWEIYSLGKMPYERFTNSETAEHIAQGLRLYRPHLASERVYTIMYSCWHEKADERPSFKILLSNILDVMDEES

For CN1CCN([C@@H]2CCCN(c3cnc(C(N)=O)c(Nc4ccc(C5CCN(CC6CCN(c7ccc(C(=O)N[C@H]8CCC(=O)NC8=O)nc7)CC6)CC5)cc4)n3)C2)C1=O [Compound 1], the body weight [1] was “minimal effect on body weight; also recorded: minimal body weight loss”, the mean arthritis score ([1]; Day 18 to day 35) was “significant benefit; also recorded: lower mean arthritis score than ibrutinib; also recorded: lower mean arthritis score than standard of care agents” and the mean clinical score ([2]; EAE, 30 mg/kg, compared with ibrutinib 30 mg/kg) was “superior to Ibrutinib; also recorded: lower mean clinical score than ibrutinib”. For the same compound, the EAE clinical scores ([2]; prophylactic daily oral treatment, Day −1 through Day 22, dose dependence) was “dose-dependent reduction of EAE clinical scores”, the “protein urine score, statistically significant reduction vs vehicle” value (MRL/lpr model; 30 mg/kg, Urine Protein Score AUC) was “statistically significant reduction” and the “anti-ds DNA autoantibody in end of study serum” value (MRL/lpr model; 30 mg/kg, vs vehicle) was “statistically significant reduction”. The “overall summed histology score” value (MRL/lpr model; [7]) was “more effective than Ibrutinib”, the “size of the glomeruli” value (MRL/lpr model; [7]) was “more effective than Ibrutinib” and the kidney disease (MRL/lpr model; MRL/lpr model) was “significantly ameliorated kidney disease”. For the same compound, the urine protein score (MRL/lpr model; daily oral, starting at 10 weeks of age, dose dependence) was “dose-dependent reduction of urine protein score”, the “plasma cells number in bone marrow” value (B cells compartment) was “significantly reduce” and the B cells percentage (B cells compartment; blood, spleens, peritoneum and bone marrow) was “does not significantly affect”. The “disease (clinical arthritis score)” value ([3]; 10 mg/kg or 30 mg/kg once daily oral, started after arthritis was established, to Arthritis Day 14) was “strongly suppressed disease”, the “control of disease compared with comparators” value ([3]; Compound 1 and ibrutinib 30 mg/kg, Enbrel 10 mg/kg i.p., tofacitinib 30 mg/kg twice daily, rilzabrutinib) was “more potently than anti-TNF-alpha blocking antibody (Enbrel) or BTK inhibitors rilzabrutinib and tofacitinib” and the “plasma cells in spleen, normalized to total B cells” value (plasma cells; 30 mg/kg, vs 30 mg/kg rilzabrutinib and ibrutinib) was “significantly fewer plasma cells than mice treated with an equivalent dose of BTK inhibitors”. The “plasma cells in spleen, normalized to total B cells” value (plasma cells; both doses (10 and 30 mg/kg), vs vehicle) was “significantly fewer plasma cells than vehicle-treated mice”, the “plasma cell numbers in the bone marrow” value (plasma cells; vs vehicle and vs equivalent doses of rilzabrutinib and ibrutinib) was “significantly reduced plasma cell numbers” and the “ability to cross the blood brain barrier” value [4] was “crosses the blood brain barrier”. The “exposure in cerebral spinal fluid (CSF)” value ([4]; 4, 8, 24 hours) was “demonstrates exposure in cerebral spinal fluid (CSF)”, the “BTK degradation in spleens” value (BTK [5]; NP-KLH immunized mice, oral once a day) was “robust BTK degradation” and the “BTK levels (percent BTK remaining in B cells)” value (BTK [5]; spleen, 24 hours after the final dose, normalized to naive group) was 13.4 % of baseline. For the same compound, the “BTK level in B cells” value (BTK [6]) was “robust BTK degradation”.
